In patent US20030096956A1, “Process for producing kiss-1 peptide” (priority 1999, published 2003):
Ends that are not written are not given here.

Tested on: intracellular calcium ion concentration
Test: activity of increasing intracellular calcium ion concentration (method of Example 3 of WO 99/33976)
Format: cell-based
Conditions: compared with a standard product isolated from human placenta extract

human KiSS-1 peptide: Recombinant peptide of SEQ ID NO: 1 with C-terminal amide, cleaved from KiSS-1 peptide-CS23 fusion protein expressed in E. coli (GTSLSPPPESSGSRQQPGLSAPHSRQIPAPQGAVLVQREKDLPNYNWNSFGLRF-NH2)
activity of increasing intracellular calcium ion concentration: equivalent to that of a standard product isolated from human placenta extract
